Values quoted from earlier work in US20080200520A1, “Iron Modulators” (BTG INTERNATIONAL LIMITED, priority 2005, published 2008).
Counter-ions that a name gives are not always drawn.

What was measured:
[1] = comparative compounds, commercial lots; solvent in which soluble
[2] = comparative compounds, commercial lots
[3] = comparative compounds, commercial lots; remark: listed apart in the source
[4] = system: mice; conditions: oral treatment

Solubility [1]	Stability [2]	Structure (SMILES)	Potential Hazards [3]	protection from the effects of MPTP [4]
water	stable	Cc1c(O)c(=O)ccn1C [Deferiprone]	–	–
water	stable	CC(=O)N(O)CCCCCNC(=O)CCC(=O)N(O)CCCCCNC(=O)CCC(=O)N(O)CCCCCN [Desferrioxamine Mesylate]	none	–
DMSO	stable	Oc1c(I)cc(Cl)c2cccnc12 [Clioquinol]	harmful. Sensitisation by inhalation and skin contact. Causes severe irritation. Readily absorbed through skin. Target organs: eyes and nerves	protect mice from the effects of MPTP
